Results reported in ChEMBL document CHEMBL5608141, “Identification of compartment-specific drug sensitivities in CRC organoid-stroma co-cultures” (2024).

How the values were obtained:
Format in all cases: functional, Homo sapiens
Set-up in all cases: dose or concentration left out as unconfirmed
[1] = tested on: Colon cancer organoid; test: Identification of compartment-specific drug sensitivities in O14 CRC organoid-stroma F14 CAF co-cultures. Organoid is transduced with Lucferase2-P2A-EGFP lentivirus, fibroblast with Renilla-dsRed lentivirus. Dual-Glo Luciferase assay is used to report viability data.
[2] = tested on: Colon cancer organoid; test: Identification of compartment-specific drug sensitivities in O06 CRC organoid-stroma F06 CAF co-cultures. Organoid is transduced with Lucferase2-P2A-EGFP lentivirus, fibroblast with Renilla-dsRed lentivirus. Dual-Glo Luciferase assay is used to report viability data.
[3] = tested on: Colon cancer organoid; test: Identification of compartment-specific drug sensitivities in O20 CRC organoid-stroma F20 CAF co-cultures. Organoid is transduced with Lucferase2-P2A-EGFP lentivirus, fibroblast with Renilla-dsRed lentivirus. Dual-Glo Luciferase assay is used to report viability data.
[4] = Transduced with Lucferase2-P2A-EGFP lentivirus
[5] = Transduced with Renilla-dsRed lentivirus

| Compound | Cell Viability [1, 4] | Cell Viability [1, 5] | Cell Viability [2, 4] | Cell Viability [2, 5] | Cell Viability [3, 4] | Cell Viability [3, 5] |
| --- | --- | --- | --- | --- | --- | --- |
| NS(=O)(=O)c1cc(NC(=O)Cc2ccccc2)ccc1Oc1cccc(Cl)c1 [BAY-1797] | 92.6745% | 115.956% | 89.5842% | 298.319% | 89.0927% | 86.996% |
| Cn1c(C2(NC(=O)c3ccc(NCC4CCCCC4)nc3)CCC2)nc2ccc(/C=C/C(=O)O)cc21 [BI 7656] | 93.219% | 83.8542% | 95.6503% | 130.646% | 93.1126% | 134.723% |
| CC(=O)N1CCC(c2ccc(C(=O)NC3=NCCN3)cc2C(F)(F)F)CC1 [BI 0054] | 111.388% | 98.4803% | 124.071% | 95.7607% | 121.714% | 122.015% |
| CC1=C(C#N)C(c2ccc3c(c2)c(NC(=O)c2ccccc2C)nn3C)C(C#N)=C(C)N1 [BAY-974] | 92.3005% | 117.089% | 90.4588% | 87.5124% | 105.235% | 128.576% |
| Cn1cc(CCn2cnc(-c3cnn(C)c3)c2-c2ccc(C#N)cc2)cn1 | 93.9691% | 90.5921% | 101.212% | 117.261% | 163.337% | 107.326% |
| O=C(O)[C@@H]1[C@@H](Cn2nnc3ccccc3c2=O)CC[C@H]1C(=O)c1ccc(OCCC2CCOCC2)cc1 [BAY-694] | 127.223% | 103.773% | 99.0718% | 68.3581% | 92.0939% | 91.7477% |
| O=C(CCCCCCNC(=O)c1cnc(N(c2ccccc2)c2ccccc2)nc1)NO [RICOLINOSTAT] | 136.319% | 100.142% | 80.064% | 143.43% | 159.49% | 130.22% |
| CC1=C(C)C(=O)C(C(C)(C)CC(=O)N(CCCCSC[C@H]2O[C@@H](n3cnc4c(N)ncnc43)[C@@H]3OC(C)(C)O[C@@H]32)Cc2cccc(-c3ccc(Cl)cc3)c2)=C(C)C1=O | 94.9972% | 94.497% | 82.0361% | 129.013% | 98.0775% | 117.278% |
| O=C(N[C@H]1CCCCC/C=C\C2C[C@@]2(C(=O)O)NC(=O)[C@@H]2C[C@@H](Oc3ccncc3)CN2C1=O)OC1CCCC1 (stereo partly specified) [BI 1675] | 118.741% | 112.641% | 164.286% | 81.7525% | 103.036% | 110.731% |
| CN(C(=O)c1cnn2cccnc12)c1cc2c(cc1N1CCOCC1)C(=O)N(C[C@@H](F)C(C)(C)O)C2 | 98.5166% | 101.353% | 93.6773% | 65.3185% | 85.5909% | 89.8275% |
| C[C@@H](c1cccc(CN)c1)n1cc(Cl)cc(C(N)=O)c1=N.Cl | 112.906% | 94.626% | 104.535% | 114.984% | 85.1763% | 93.567% |
| NS(=O)(=O)c1cc(NC(=O)C2(c3ccccc3Cl)CC2)ccc1Oc1cccc(Cl)c1 [BAY-207] | 120.584% | 143.533% | 102.145% | 97.9535% | 177.814% | 111.752% |
| O=C(NCCCN1CCOC1=O)c1cnc(NCc2cc(Br)ccc2Br)nc1NC1CCCC1 | 120.927% | 72.8786% | 72.4903% | 99.9468% | 103.947% | 94.0994% |
| O=C(O)c1ccc2c(c1)nc(Nc1cccc(Cl)c1)c1ccncc12 [SILMITASERTIB] | 116.96% | 107.599% | 108.166% | 80.6873% | 158.324% | 81.7658% |
| Cc1cc(C)cc([C@@H]2c3cc(C)ccc3NC(=O)CN2C(=O)c2ccc(Br)s2)c1 | 110.484% | 405.65% | 107.168% | 464.523% | 135.909% | 541.943% |
| CC(C)Oc1ccc(-c2nn([C@@H](C)c3oc4ccc(F)cc4c(=O)c3-c3cccc(F)c3)c3ncnc(N)c23)cc1F [UMBRALISIB] | 161.449% | 91.4949% | 96.678% | 112.425% | 103.314% | 87.858% |

| Compound | Cell Viability [1, 4] | Cell Viability [1, 5] | Cell Viability [2, 4] | Cell Viability [2, 5] | Cell Viability [3, 4] | Cell Viability [3, 5] |
| --- | --- | --- | --- | --- | --- | --- |
| CC1CCN(c2ccnc(NCc3cn(C)cn3)n2)CC1 [TP-040] | 70.4837% | 82.5883% | 104.895% | 163.738% | 75.5826% | 95.0735% |
| CN(C)[C@H]1CCN(c2cc(-c3ccccc3)nc3ccnn23)C1 [(S)-ZINC-3573] | 98.973% | 77.8832% | 87.7689% | 121.05% | 93.0253% | 112.128% |
| COCCc1ccc(-c2c(C)nc3c(N4CCOCC4)ccnn23)cn1 [JNJ-42396302] | 94.533% | 84.3411% | 121.378% | 128.188% | 126.017% | 102.271% |
| COCC(=O)NC/C=C/c1ccc2ncnc(Nc3ccc(Oc4ccc(C)nc4)c(C)c3)c2c1 [CP-724714] | 105.334% | 107.19% | 64.178% | 58.1065% | 97.2693% | 94.0282% |
| O=c1nc(-c2ccccn2)sc2ccccc12 [BTZO-1] | 117.78% | 105.233% | 109.998% | 128.099% | 113.092% | 104.485% |
| CCOC(=O)Nc1cc(-c2ccc(C)c(NS(C)(=O)=O)c2)nn2c(C)nnc12 | 91.5211% | 161.373% | 112.605% | 266.102% | 38.74% | 177.965% |
| C[C@H](c1ccc(F)cc1)N(Cc1cccc(C(=O)O)c1)C(=O)c1cnc2ccccc2c1 [PF-05105679] | 130.3% | 106.537% | 130.848% | 113.872% | 143.937% | 111.508% |
| Cc1cccc(-c2cnc3occ(-c4ccc(C(=O)O)c(C5CCCC5)c4)c3c2)c1 | 146.067% | 87.0815% | 94.5335% | 126.561% | 88.6258% | 133.429% |
| Cc1ccc(C(=O)Nc2cccc(C(F)(F)F)c2)cc1Nc1nc(-c2cccnc2)nc2c1cnn2C | 129.491% | 76.0508% | 60.2736% | 70.9034% | 143.016% | 123.917% |
| Cc1c(NC(=O)c2ccc(C(C)(C)C)cc2)cccc1-c1cn(C)c(=O)c(Nc2ccc(C(=O)N3CCOCC3)cc2)n1 | 92.1091% | 94.7887% | 105.279% | 113.435% | 110.349% | 88.3582% |
| CC(C)[C@H](C(=O)Nc1ccc(C(=O)NO)cc1)c1ccccc1 [AR-42] | 24.8523% | 220.952% | 8.004% | 640.047% | 13.9942% | 352.85% |
| O=C1CCc2cc(Nc3cc(OC4CCOCC4)c([N+](=O)[O-])cc3Cl)ccc2N1 | 98.9348% | 106.803% | 74.579% | 100.938% | 150.133% | 114.972% |
| C[C@@H]1CC(=O)Nc2cccc(-c3ccc4c(c3)c(-c3cnn(C)c3)nn4C)c2N1 | 127.46% | 126.975% | 96.7982% | 166.358% | 69.4002% | 148.573% |
| CC#CC(=O)N1CCC[C@H]1c1nc(-c2ccc(C(=O)Nc3ccccn3)cc2)c2c(N)nccn12 [ACALABRUTINIB] | 75.641% | 83.8473% | 96.562% | 83.4698% | 96.3915% | 99.9657% |
| CS(=O)(=O)N1CCN(Cc2cc3nc(-c4cccc5[nH]ncc45)nc(N4CCOCC4)c3s2)CC1 [PICTILISIB] | 42.7401% | 54.6957% | 43.124% | 60.0718% |  |  |
| COc1ccccc1C(=O)Nc1cc2c(cc1N1CCCC1)n(C)c(=O)n2C |  |  |  |  | 114.161% | 143.545% |
